These results are taken from US20230312670A1, “MYELIN OLIGODENDROCYTE GLYCOPROTEIN-SPECIFIC PEPTIDE FOR THE TREATMENT OR PREVENTION OF MULTIPLE SCLEROSIS” (LOMA LINDA UNIVERSITY, priority 2016, published 2023).

“Also recorded” adds a separate entry of the source. Marks after values point to notes of the source that are not given here.

In one test the test system is CD8^+ T cells. Nature of the test: IFN-γ Enzyme-linked ImmunoSpot of CD8+ T cells with C1R or C1R.Qa-1^b antigen-presenting cells. Format: cell-based, K^b−/−D^b−/− mice. Conditions: in the presence of C1R.Qa-1^b cells. The protocol: FIG. 1A-1C. Portion of CD8^+ T cells reactive to the pool of overlapping peptides (OLPs) covering the whole length of mouse MOG was Qa-1^b restricted. (A) A schematic view of the mouse MOG OLP library. 15mer peptides across the whole length of mouse MOG (247 amino acids) and overlapped by 11 amino acids were synthesized. A pool of the 59 OLPs (“MOG_pool”) at a concentration of 4.2 μg/ml for each peptide was then generated for stimulating CD8^+ T cells purified from K^b−/−D^b−/− mice. (B) Experimental design for Enzyme-linked ImmunoSpot assay in “C”: CD8^+ T cells purified from K^b−/−D^b−/− mice were stimulated with the MOG_pool in vitro on a weekly basis. Before being stimulated each time, the CD8^+ T cells were monitored for response to the MOG_pool, using IFN-γ Enzyme-linked ImmunoSpot, in the presence of either C1R or C1R.Qa-1^b cells as antigen presenting cells. (C) Enzyme-linked ImmunoSpot data on day 7 were shown and were representative of three independent experiments. The number at the upper left corner of each well is the absolute number of IFN-γ spot forming cells (SFCs) in the corresponding well (50,000 CD8 T cells/well).
FIG. 2A-2F. Recognition of multiple OLPs by the MOG_pool-reactive CD8^+ T cell lines depended on Qa-1^b. (A-D) MOG_pool-reactive CD8^+ T cell lines were generated as described in FIG. 1. […]

Test [1] concerns MOG196-specific Qa-1^b-restricted CD8^+ T cells. The test can be described thus: In vitro stimulation of CD8+ T cells with MOG196-pulsed antigen-presenting cells, Qa-1^b/MOG196 tetramer staining. Format: cell-based. Conditions: weekly stimulation with MOG196-pulsed APCs from K^b−/−d^b−/− or C57Bl/6 mice; beginning on day 14. Here is the method:
FIG. 4A-4D. MOG196 can bind to Qa-1^b and stimulate MOG196-specific Qa-1^b-restricted CD8^+ T cells. (A) MOG196 was incubated with recombinant Qa-1^b and β2 microglobulin in a protein refolding buffer at 10° C. under gentle agitation (60 rpm) for four days. The solution was separated by a size exclusion column. Peak “A” and “B” represented typical non-specific protein aggregates and correctly refolded MOG196/Qa-1^b monomer, respectively. (B) Monomers in peak B of panel “A” were further analyzed by an anion exchange chromatography. (C) Proteins in peaks “A”, “B1”, and “B2” were biotinylated and portions of the biotinylated proteins were incubated with streptavidin (SA) to examine formation of tetramers. The biotinylated proteins and corresponding tetramers were analyzed in a non-denature protein gel. Arrows show protein bands for MOG196/Qa-1^b monomers. […] The CD8^+ T cells were analyzed for binding to Qa-1^b/MOG196 tetramer at days 0, 7, and 14. […]
Multichromatic flow cytometry: Briefly, about 0.5-1×10^6 cells in a FACS buffer (PBS containing 1% FBS and 0.05% sodium azide) were stained with various fluorescence-conjugated antibodies specific for the desired cell surface proteins or with tetramers at 4′C for 30 min. The stained cells were washed twice in the FACS buffer before being analyzed on a BD FACSAria II. […]

Test [2] deals with Qa-1^b/MOG196 tetramer^+CD8^+ T cells. Nature of the test: CD122 and Ly49 expression on Qa-1^b/MOG196 tetramer+ CD8+ T cells after immunization with MOG196-pulsed DC2.4 cells. Format: in vivo, C57BL/6 mice. The note with it: intravenous MOG196-pulsed DC2.4 cells at days 0 and 10, analysis ten days after last immunization. An excerpt:
FIG. 7A-7G. Immunization with DCs pulsed with MOG196 activates Qa-1^b/MOG196 tetramer^+ cells that specifically accumulate in cervical lymph nodes. (A) C57BL/6 mice (5 mice/group) were immunized with MOG35-55 for EAE. […] (B) Representative plots of Qa-1^b/MOG196tetramer^+ cells among CD8^+ T cells in cervical lymph nodes and spleens. (C) Cumulative data of Qa-1^b/MOG196tetramer^+ cells from five mice. *P<0.05. Two-way ANOVA test. (D) Representative plots of I-A^b/MOG38-49 tetramer^+ cells among CD8^− T cells in cervical lymph nodes and spleens. (E) Cumulative data of I-A^b/MOG38-49 tetramer^+ cells from five mice. *P<0.05. Two-way ANOVA test. (F) Experimental design for “G”: C57BL/6 mice were intravenously immunized with MOG196-pulsed DC2.4 cells at days 0 and 10. […]
Multichromatic flow cytometry: Briefly, about 0.5-1×10^6 cells in a FACS buffer (PBS containing 1% FBS and 0.05% sodium azide) were stained with various fluorescence-conjugated antibodies specific for the desired cell surface proteins or with tetramers at 4′C for 30 min. The stained cells were washed twice in the FACS buffer before being analyzed on a BD FACSAria II.
CD122 and Ly49 were expressed in a portion of the Qa-1^b/MOG196 tetramer+ cells. […] Expression of these two markers on the Qa-I^b/MOG196 tetramer+ cells was analyzed.

In another test the target is Qa-1^b (Mus musculus, UniProt P06339). The test can be described thus: In vitro refolding of peptide with recombinant Qa-1^b protein and β2 microglobulin. Format: binding. Conditions: 10° C., four days; size exclusion, anion exchange, tetramer formation. The protocol:
FIG. 4A-4D. MOG196 can bind to Qa-1^b and stimulate MOG196-specific Qa-1^b-restricted CD8^+ T cells. (A) MOG196 was incubated with recombinant Qa-1^b and β2 microglobulin in a protein refolding buffer at 10° C. under gentle agitation (60 rpm) for four days. The solution was separated by a size exclusion column. Peak “A” and “B” represented typical non-specific protein aggregates and correctly refolded MOG196/Qa-1^b monomer, respectively. (B) Monomers in peak B of panel “A” were further analyzed by an anion exchange chromatography. (C) Proteins in peaks “A”, “B1”, and “B2” were biotinylated and portions of the biotinylated proteins were incubated with streptavidin (SA) to examine formation of tetramers. The biotinylated proteins and corresponding tetramers were analyzed in a non-denature protein gel. Arrows show protein bands for MOG196/Qa-1^b monomers. “−”: without SA; “+”: with SA; “pk A”: peak A; “pk B1”: peak B1; “pk B2“ ” peak B2; “Std”: a protein standard. […] The CD8^+ T cells were analyzed for binding to Qa-1^b/MOG196 tetramer at days 0, 7, and 14. […]
MOG196 binds to Qa-1^b and activates MOG196—specific Qa-1^b—restricted CD8^+ T cells in vitro. […] Subsequently, the biotinylated proteins and streptavidin-conjugated tetramers were analyzed in a non-denature protein gel. […]

Chain of Qa-1^b (P06339 21-295 limits assumed): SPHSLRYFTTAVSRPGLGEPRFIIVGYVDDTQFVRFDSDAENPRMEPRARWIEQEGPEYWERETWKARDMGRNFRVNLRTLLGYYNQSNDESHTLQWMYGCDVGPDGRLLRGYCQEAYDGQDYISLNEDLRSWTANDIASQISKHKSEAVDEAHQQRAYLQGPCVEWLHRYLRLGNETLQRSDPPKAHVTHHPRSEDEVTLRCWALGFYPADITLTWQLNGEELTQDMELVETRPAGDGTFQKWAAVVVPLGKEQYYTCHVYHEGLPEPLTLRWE
Chain of Qa-1^b (P61769 21-119 partner): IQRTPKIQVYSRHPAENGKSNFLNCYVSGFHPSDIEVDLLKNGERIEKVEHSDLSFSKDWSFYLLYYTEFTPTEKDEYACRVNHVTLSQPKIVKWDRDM

For the sequence IICYNWLHR [MOG196], the “stimulation of an OLP105-reactive CD8^+ T cell line by truncated OLP105 peptides (IFN-γ SFCs)” value with CD8^+ T cells is “minimal and optimal epitope in OLP105; also recorded: highest response”. The “Qa-1^b/MOG196 tetramer+ cells in CD8^+ T cell lines” value in test [1] is listed as “could be detected”. In test [2], the “tetramer+ cells expressing CD122” value was “about 22.6%”; the “tetramer+ cells expressing both CD122 and Ly49” value is “about 7.2%”. In the test with Qa-1^b, the “binding to Qa-1^b (refolding into MOG196/Qa-1^b/β2m monomer)” value was “could bind to Qa-1^b”.
